Results on two molecules are retold here after patent US12568964B2 (priority 2019, dated 2026).

Where two headings read alike, the source gives them in different places.

The subject of the assay is Xylella fastidiosa. Format: in vivo. The following applies: 5 treatments; for Phenotypic improvement of infected olive plants after treatment: 5% w/v, sprayed on foliage, trunk and adjacent soil; for State of treated plants at 9 months after the treatment: 5% w/v in bidistilled water, 9 months after treatment.

As to “5-hydroxy-naphthalen-1,4-dione complexed with copper”, the “Phenotypic improvement of infected olive plants after treatment” value (Example 3.1: three olive trees, 200 mg per plant suspended in bidistilled water, one every 5 days) was “Phenotypic improvements of the plant were observed with the birth of new shoots on the branches previously in a state of desiccation and disappearance of the crumpled and yellowish colored leaves”. The “State of treated plants at 9 months after the treatment” value (Example 3.1: three olive trees, 200 mg per plant, one every 5 days) was “still free of crumpled and yellowish colored leaves and dried branches”.

Take `O=C1C=CC(=O)c2c(O)cccc21` [5-hydroxy-naphthalene-1,4-dione]: the “Phenotypic improvement of infected olive plants after treatment” value (Example 3.4: four olive trees, 150 mg per plant suspended in bidistilled water, one every 5 days) is “Phenotypic improvements of the plant were observed with the birth of new shoots on the branches previously in a state of desiccation and disappearance of the crumpled and yellowish colored leaves”. Besides, where the note is “Example 3.4: four olive trees, 150 mg per plant”, the “State of treated plants at 9 months after the treatment” value is “still free of crumpled and yellowish colored leaves and dried branches”.
